For four molecules, IC50 results are on record in patent publication US9650377B2, “Diazepinone derivatives” (Novartis AG, priority 2012, dated 2017).

Molecules are shown by their SMILES.

The target in assay [1] is human mGluR1 (Homo sapiens (Human), UniProt Q13255). Briefly: mGluR1 antagonism: L-glutamate induced intracellular calcium increases, FLIPR, CHO cells stably expressing human mGluR1. In kind it is cell-based. Conditions: inhibition of glutamate-induced elevation of intracellular calcium. From the text:
Activity of compounds of the present invention with respect to mGluR1 antagonism was examined by an assay based on measurements of L-glutamate induced intracellular calcium increases using a 96 well plate-based Fluorometric Imaging Plate Reader (FLIPR), and CHO cells stably expressing human mGluR1. L-glutamate induced robust calcium responses via human mGluR1 in a concentration-dependent manner and in the low micromolar range. The table below represents IC50 values of the inhibition of the glutamate-induced elevation of the intracellular calcium concentration.
For orientation: Calcium flux is commonly read through the fluorescence of an indicator in the cells.

Assay [2] deals with human mGluR5a receptors (Homo sapiens (Human), UniProt P41594). Briefly: Inhibition of glutamate-induced elevation of intracellular calcium in L(tk−) cells expressing human mGluR5a receptors. The following applies: read-out: mGluR5 IC50. Type of assay: cell-based. From the text: Activity of compounds of the present invention was examined by determination to what extent the glutamate-induced elevation of the intracellular calcium concentration in L(tk−) cells expressing human mGluR5a receptors (see L. P. Daggett et al., Neuropharm. Vol. 34, pages 871-886, 1995) is inhibited by utilizing methods as described e.g. by L. P. Daggett et al., Neuropharm. Vol. 34, pages 871-886 (1995) and P. J. Flor et al., J. Neurochem. Vol. 67, pages 58-63 (1996).
Sequence of human mGluR5a receptors (P41594 other isoform, or with tags, fused parts or gaps): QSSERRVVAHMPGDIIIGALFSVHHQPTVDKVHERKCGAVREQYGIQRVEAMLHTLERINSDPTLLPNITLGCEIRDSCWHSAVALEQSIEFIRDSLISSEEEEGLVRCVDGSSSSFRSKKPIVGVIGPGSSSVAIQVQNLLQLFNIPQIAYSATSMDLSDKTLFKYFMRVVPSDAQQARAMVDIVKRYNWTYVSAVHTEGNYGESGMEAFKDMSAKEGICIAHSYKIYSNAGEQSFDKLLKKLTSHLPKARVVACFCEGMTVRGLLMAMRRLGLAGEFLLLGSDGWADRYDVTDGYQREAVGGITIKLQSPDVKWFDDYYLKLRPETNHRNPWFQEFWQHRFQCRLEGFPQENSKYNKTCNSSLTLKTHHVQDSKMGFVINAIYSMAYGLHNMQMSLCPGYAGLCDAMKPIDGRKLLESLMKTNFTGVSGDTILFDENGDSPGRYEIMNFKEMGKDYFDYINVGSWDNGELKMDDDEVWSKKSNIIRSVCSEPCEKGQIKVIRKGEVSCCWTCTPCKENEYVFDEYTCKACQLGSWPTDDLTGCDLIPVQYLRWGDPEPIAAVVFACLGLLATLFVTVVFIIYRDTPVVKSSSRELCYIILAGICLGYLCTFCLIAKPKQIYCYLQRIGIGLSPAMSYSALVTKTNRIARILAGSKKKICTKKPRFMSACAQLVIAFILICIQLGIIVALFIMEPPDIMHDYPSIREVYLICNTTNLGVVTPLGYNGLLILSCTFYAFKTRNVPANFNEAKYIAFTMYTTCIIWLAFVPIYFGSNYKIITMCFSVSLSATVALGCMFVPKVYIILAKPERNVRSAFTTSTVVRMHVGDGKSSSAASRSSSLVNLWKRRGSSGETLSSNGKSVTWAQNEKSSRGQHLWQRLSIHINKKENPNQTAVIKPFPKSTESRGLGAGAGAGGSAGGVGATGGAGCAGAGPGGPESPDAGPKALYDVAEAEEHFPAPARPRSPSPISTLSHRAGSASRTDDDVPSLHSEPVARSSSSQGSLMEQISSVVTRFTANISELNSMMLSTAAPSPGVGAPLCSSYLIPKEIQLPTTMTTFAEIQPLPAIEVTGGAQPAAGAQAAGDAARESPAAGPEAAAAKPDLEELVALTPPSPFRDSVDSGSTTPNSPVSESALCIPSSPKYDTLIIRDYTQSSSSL
Activity of compounds of the present invention with respect to mGluR1 antagonism was examined by an assay based on measurements of L-glutamate induced intracellular calcium increases using a 96 well plate-based Fluorometric Imaging Plate Reader (FLIPR), and CHO cells stably expressing human mGluR1.

Sequence of human mGluR1 (Q13255 19-1194): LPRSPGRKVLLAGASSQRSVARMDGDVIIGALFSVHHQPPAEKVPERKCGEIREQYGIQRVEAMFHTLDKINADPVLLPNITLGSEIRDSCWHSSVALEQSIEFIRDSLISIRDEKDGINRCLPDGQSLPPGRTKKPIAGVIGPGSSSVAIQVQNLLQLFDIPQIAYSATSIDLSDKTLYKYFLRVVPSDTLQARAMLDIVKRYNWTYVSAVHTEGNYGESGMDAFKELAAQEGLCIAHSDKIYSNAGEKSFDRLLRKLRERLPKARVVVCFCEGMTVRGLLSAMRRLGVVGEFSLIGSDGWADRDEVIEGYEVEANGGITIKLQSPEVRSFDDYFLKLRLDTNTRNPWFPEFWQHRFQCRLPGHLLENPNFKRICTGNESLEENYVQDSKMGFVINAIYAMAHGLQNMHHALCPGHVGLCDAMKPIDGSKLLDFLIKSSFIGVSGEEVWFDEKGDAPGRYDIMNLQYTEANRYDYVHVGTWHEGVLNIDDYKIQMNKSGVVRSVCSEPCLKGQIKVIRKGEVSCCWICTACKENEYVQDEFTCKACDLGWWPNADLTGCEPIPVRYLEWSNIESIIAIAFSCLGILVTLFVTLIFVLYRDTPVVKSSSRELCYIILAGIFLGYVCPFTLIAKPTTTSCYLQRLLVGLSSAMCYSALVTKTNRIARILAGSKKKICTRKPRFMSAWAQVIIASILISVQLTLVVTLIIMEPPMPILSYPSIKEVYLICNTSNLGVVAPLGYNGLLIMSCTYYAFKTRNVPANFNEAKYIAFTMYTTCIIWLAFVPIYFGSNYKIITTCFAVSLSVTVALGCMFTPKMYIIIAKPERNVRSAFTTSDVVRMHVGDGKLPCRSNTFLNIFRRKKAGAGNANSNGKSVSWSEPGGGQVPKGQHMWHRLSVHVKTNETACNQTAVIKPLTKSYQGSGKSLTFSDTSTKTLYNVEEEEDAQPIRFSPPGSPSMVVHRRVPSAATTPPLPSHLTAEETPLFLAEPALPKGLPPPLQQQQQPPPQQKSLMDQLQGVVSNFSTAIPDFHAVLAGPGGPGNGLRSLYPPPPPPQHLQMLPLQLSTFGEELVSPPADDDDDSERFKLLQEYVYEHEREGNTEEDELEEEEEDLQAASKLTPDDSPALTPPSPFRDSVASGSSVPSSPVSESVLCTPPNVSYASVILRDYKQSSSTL

Take `CCc1cn(C2=NCC(=O)N3CCc4c(cccc4C(C)O)C3=C2)cn1` (racemic) [Example 115, 2-(4-ethyl-1H-imidazol-1-yl)-9-(1-hydroxyethyl)-7,8-dihydro-[1,4]diazepino[7,1-a]isoquinolin-5(4H)-one]: the figures for the IC50 in assay [1] and in assay [2] were greater than 10000 nM and 495 nM, respectively.
For `Cn1cc(C2=NCC(=O)N3CCc4c(I)cccc4C3=C2)cn1` [Example 32, 9-iodo-2-(1-methyl-1H-pyrazol-4-yl)-7,8-dihydro-[1,4]diazepino[7,1-a]isoquinolin-5(4H)-one] the same measures were 35 nM and 10 nM.
For `CCOCc1cn(C2=NCC(=O)N3CCc4c(cccc4-c4nc(C)cs4)C3=C2)cn1` [Example 88i, 2-(4-(ethoxymethyl)-1H-imidazol-1-yl)-9-(4-methylthiazol-2-yl)-7,8-dihydro-[1,4]diazepino[7,1-a]isoquinolin-5(4H)-one] the same measures were greater than 10000 nM and 340 nM.
Take `Cc1nc(-c2cccc3c2CCN2C(=O)CN=C(n4cnc(C5CCC5)c4)C=C32)co1` [Example 108b, 2-(4-cyclobutyl-1H-imidazol-1-yl)-9-(2-methyloxazol-4-yl)-7,8-dihydro-[1,4]diazepino[7,1-a]isoquinolin-5(4H)-one]: the IC50 in assay [1] worked out at 1920 nM; in assay [2] it was 23 nM.

A word on the IC50: it is the point on the concentration scale where inhibition reaches its midpoint.
